In ChEMBL document CHEMBL1681649, “Design, synthesis and biological evaluation of novel 4-hydroxybenzene acrylic acid derivatives” (Bioorg Med Chem Lett, 2011) one finds Activity data, which are given here for ten molecules.

For data set [1], the system named is Mus musculus. The data set can be described thus: Antiinflammatory activity in xylene-induced Kunming mouse ear edema model assessed as suppression of ear swelling at 300 mg/kg, po. The data set is classed as functional.
Data set [2] deals with Mus musculus. The data set can be described thus: Antiinflammatory activity in xylene-induced Kunming mouse ear edema model assessed as suppression of ear swelling at 150 mg/kg, po. Type of data set: functional.
For data set [3], the system named is Mus musculus. The data set can be described thus: Cardiotoxicity in Kunming mouse assessed as pathological changes at 150 mg/kg, po after 12 days. Type of data set: toxicity, organism-based. Details: dose 150 mg/kg, route oral. The note with it: in vivo, 288 h.
The test system of data set [4] is Mus musculus. Description: Antiinflammatory activity in xylene-induced Kunming mouse ear edema model assessed as suppression of ear swelling at 75 mg/kg, po. The data set is classed as functional.
For data set [5], the system named is Mus musculus. Description: Cardiotoxicity in Kunming mouse assessed as pathological changes at 100 mg/kg, po after 12 days. The data set is classed as toxicity, organism-based. Also on record: dose 100 mg/kg, route oral. The note with it: in vivo, 288 h.
The test system of data set [6] is Mus musculus. Description: Antiinflammatory activity in xylene-induced Kunming mouse ear edema model assessed as suppression of ear swelling at 100 mg/kg, po. Type of data set: functional.

In the case of `COc1cc(/C=C(/C(=O)O)c2ccc(S(C)(=O)=O)cc2)ccc1OC(C)=O`, the Activity in data set [1] is reported as 45.29%; in data set [2], 26.12%; in data set [3], “Non-toxic”; in data set [4] it was 12.38%.
With `COc1cc(/C=C(/C(=O)O)c2ccc(S(C)(=O)=O)cc2)ccc1O`, in data set [1], the Activity is recorded as 9.97%.
The same measure, in the same setting: the result for `COc1ccc(/C=C(/C(=O)O)c2ccc(S(C)(=O)=O)cc2)cc1OC` reads 15.92%.
For `CC(=O)Oc1ccc(/C=C(/C(=O)O)c2ccc(S(C)(=O)=O)cc2)cc1`, the Activity in data set [1] was 44.75%; in data set [2], 32.87%; in data set [4], 23.34%.
For `CCOC(=O)/C(=C/c1ccc(OC(C)=O)c(OC)c1)c1ccc(S(C)(=O)=O)cc1`, the Activity in data set [1] is listed as 24.11%.
Same read-out and setting: with `CCOC(=O)/C(=C/c1ccc(O)c(OC)c1)c1ccc(S(C)(=O)=O)cc1` the figure was 34.62%.
Turning to `CCOC(=O)/C(=C/c1ccc(OC(C)=O)c(Br)c1)c1ccc(S(C)(=O)=O)cc1`, the Activity in data set [4] is on record as 0%.
Consider `CS(=O)(=O)c1ccc(/C(=C\c2ccccc2)C(=O)O)cc1`, for which, in data set [1], the Activity stood at 17.49%.
Still for that read-out and setting: with `COc1cc(/C=C(/C(=O)O)c2ccccc2)ccc1OC(C)=O` the figure was 21.86%.
In the case of `COc1ccc2c(c1)c(CC(=O)O)c(C)n2C(=O)c1ccc(Cl)cc1` [INDOMETHACIN], the figures for the Activity entry in data set [5] and in data set [6] were “Non-toxic” and 37.03%, respectively.
